Where “and” joins values, the source holds several entries; their conditions need not be identical. Equal values may be shown once.
How the values were obtained:
human TLR2 [1] = target: T1, human TLR2 (Homo sapiens, UniProt O60603); test: Activation of human TLR2 III: HEK-Blue hTLR2 dose response (SEAP reporter); type: cell-based; settings: for optical density (650 nm): screenings 1-3; for stimulatory / agonist activity for hTLR2 (in words) / fold induction at 120 fg/mL / fold induction at 490 fg/mL / fold induction at 1.95 pg/mL / fold induction at 7.81 pg/mL / fold induction at 31.25 pg/mL / fold induction at 0.000125 µg/mL / fold induction at 0.0005 µg/mL: HEK-Blue hTLR2; for fold induction at 120 fg/mL / fold induction at 490 fg/mL / fold induction at 1.95 pg/mL / fold induction at 7.81 pg/mL / fold induction at 31.25 pg/mL / fold induction at 0.000125 µg/mL / fold induction at 0.0005 µg/mL: read-out: Fold Induction (ratio of average induced value to average non-induced value); for EC50: agonism of hTLR2, HEK-Blue hTLR2
T1 construct: expressed in transfected cells; host or cells: HEK-Blue hTLR2 cells
Procedure: Toll-Like Receptor (TLR) stimulation is tested by assessing NF-KB activation in the TLR expressing cell lines. HEK-Blue h/mTLR2 cells have been stably transfected with human or mouse TLR2 and CD14. The activity of the test articles are tested on human and mouse TLR2, as potential agonists. The test articles are evaluated at seven concentrations and compared to control ligands (see list below). These steps are performed in triplicate.
A 5 µg/mL working stock was then prepared for each compound from the 20 µg/mL dilution in sterile PBS. Starting from the 5 µg/mL working stock, a series of six 1:4 serial dilutions were made by mixing 100 µL of the previous highest dilution with 300 µL sterile PBS.
The secreted embryonic alkaline phosphatase (SEAP) reporter is under the control of a promoter inducible by the transcription factor NF-κB. This reporter gene allows the monitoring of signaling through the TLR, based on the activation of NF-κB. In a 96-well plate (200 µL total volume) containing the appropriate cells (50,000 - 75,000 cells/well), 20 µL of the test article or the positive control ligand (HKLC) is added to the wells. The media added to the wells is designed for the detection of NF-κB induced SEAP expression. After a 16-24-hour incubation the optical density (OD) is read at 650 nm on a Molecular Devices SpectraMax 340PC absorbance detector.

human TLR2 [2] = target: T1, human TLR2; test: Activation of human TLR2 IV: HEK-BLUE-hTLR2 assay; type: cell-based; settings: HEK-BLUE-hTLR2 cells, FIG. 4
Procedure: HEK-BLUE-hTLR2 cells are designed for studying the stimulation of human TLR2 (hTLR2) by monitoring the activation of NF-kB. HEK-BLUE-hTLR2 cells are obtained by co-transfection of the hTLR2 and SEAP (secreted embryonic alkaline phosphatase) reporter genes into HEK293 cells. Stimulation with a TLR2 ligand activates NF-kB which induces the production of SEAP. HEK-BLUE-hTLR2 cells were purchased from InvivoGen (San Diego, CA, USA). […] xii) Add immediately […] of the cell suspension per well of the plate which contains the solution of the compounds. The plate is then returned to the incubator at 37° C. for 16 hr and was read at 620 nm by using an ELISA reader.

[3] = Stability III: accelerated aging at 40° C., 3 or 6 weeks, HPLC recovery; type: physicochemical
Procedure: Recovery of the target compound was assessed by HPLC, and the values as a percentage of the reference sample are reported in Table 14 and in FIG. 5.

T1 sequence (O60603 21-784): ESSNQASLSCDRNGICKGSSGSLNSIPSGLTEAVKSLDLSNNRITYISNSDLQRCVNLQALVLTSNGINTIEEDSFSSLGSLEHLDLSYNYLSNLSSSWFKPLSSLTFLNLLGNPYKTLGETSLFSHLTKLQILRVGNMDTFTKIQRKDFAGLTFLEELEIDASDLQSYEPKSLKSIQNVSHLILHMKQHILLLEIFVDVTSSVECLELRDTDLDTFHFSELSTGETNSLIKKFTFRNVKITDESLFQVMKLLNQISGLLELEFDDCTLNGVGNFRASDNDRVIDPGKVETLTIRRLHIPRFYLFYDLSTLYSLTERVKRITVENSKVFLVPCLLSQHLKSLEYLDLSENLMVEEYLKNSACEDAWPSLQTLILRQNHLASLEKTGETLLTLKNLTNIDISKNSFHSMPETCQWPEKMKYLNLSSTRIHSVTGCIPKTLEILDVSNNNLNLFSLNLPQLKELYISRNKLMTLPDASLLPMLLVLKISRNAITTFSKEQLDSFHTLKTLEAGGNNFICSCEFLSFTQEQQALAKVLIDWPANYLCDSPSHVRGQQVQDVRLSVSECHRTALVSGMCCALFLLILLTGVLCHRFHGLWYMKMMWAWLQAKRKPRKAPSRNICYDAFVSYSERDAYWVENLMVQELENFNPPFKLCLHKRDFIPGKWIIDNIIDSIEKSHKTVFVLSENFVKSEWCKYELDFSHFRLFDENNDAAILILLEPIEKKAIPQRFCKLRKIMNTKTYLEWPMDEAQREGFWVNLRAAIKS
T1 sequence (Q9Y2C9 32-796 partner): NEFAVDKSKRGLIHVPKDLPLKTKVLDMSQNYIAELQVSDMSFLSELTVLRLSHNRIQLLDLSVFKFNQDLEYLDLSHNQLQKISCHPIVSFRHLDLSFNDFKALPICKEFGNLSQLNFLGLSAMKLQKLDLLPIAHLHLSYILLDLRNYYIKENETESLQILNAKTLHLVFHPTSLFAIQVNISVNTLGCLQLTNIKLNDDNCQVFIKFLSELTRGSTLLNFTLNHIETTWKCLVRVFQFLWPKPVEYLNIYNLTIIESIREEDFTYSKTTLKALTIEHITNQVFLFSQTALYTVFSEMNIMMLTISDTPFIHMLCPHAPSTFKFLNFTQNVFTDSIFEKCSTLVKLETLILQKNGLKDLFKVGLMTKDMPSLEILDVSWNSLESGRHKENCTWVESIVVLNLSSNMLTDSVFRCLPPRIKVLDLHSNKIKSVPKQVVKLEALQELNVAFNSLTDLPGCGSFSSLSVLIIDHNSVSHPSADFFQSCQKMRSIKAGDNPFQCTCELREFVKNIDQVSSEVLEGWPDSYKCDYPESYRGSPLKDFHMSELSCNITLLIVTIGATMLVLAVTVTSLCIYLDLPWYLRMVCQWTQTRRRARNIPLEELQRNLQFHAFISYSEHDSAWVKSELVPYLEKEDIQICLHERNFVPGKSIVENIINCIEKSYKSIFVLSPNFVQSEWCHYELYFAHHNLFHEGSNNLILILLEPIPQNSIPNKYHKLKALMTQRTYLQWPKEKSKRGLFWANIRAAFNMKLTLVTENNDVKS

| Average optical density (650 nm) (human TLR2 [1]; 0.12 pg/mL) | optical density (650 nm) (human TLR2 [1]; 0.12 pg/mL) | Average optical density (650 nm) (human TLR2 [1]; 0.49 pg/mL) | optical density (650 nm) (human TLR2 [1]; 0.49 pg/mL) | Average optical density (650 nm) (human TLR2 [1]; 1.95 pg/mL) | optical density (650 nm) (human TLR2 [1]; 1.95 pg/mL) | Average optical density (650 nm) (human TLR2 [1]; 7.81 pg/mL) | optical density (650 nm) (human TLR2 [1]; 7.81 pg/mL) | Average optical density (650 nm) (human TLR2 [1]; 31.25 pg/mL) | optical density (650 nm) (human TLR2 [1]; 31.25 pg/mL) | Average optical density (650 nm) (human TLR2 [1]; 125 pg/mL) | optical density (650 nm) (human TLR2 [1]; 125 pg/mL) | Average optical density (650 nm) (human TLR2 [1]; 500 pg/mL) | optical density (650 nm) (human TLR2 [1]; 500 pg/mL) | stimulatory / agonist activity for hTLR2 (in words) (human TLR2 [1]) | fold induction at 120 fg/mL (human TLR2 [1]; 0.12 pg/mL) | fold induction at 490 fg/mL (human TLR2 [1]; 0.49 pg/mL) | fold induction at 1.95 pg/mL (human TLR2 [1]; 1.95 pg/mL) | fold induction at 7.81 pg/mL (human TLR2 [1]; 7.81 pg/mL) | fold induction at 31.25 pg/mL (human TLR2 [1]; 31.25 pg/mL) | Structure (SMILES) | also measured |
| --- | --- | --- | --- | --- | --- | --- | --- | --- | --- | --- | --- | --- | --- | --- | --- | --- | --- | --- | --- | --- | --- |
| 0.740 | 0.653 and 0.759 and 0.809 | 1.479 | 1.409 and 1.507 and 1.521 | 1.823 | 1.795 and 1.757 and 1.916 | 2.260 | 2.288 and 2.168 and 2.323 | 2.481 | 2.440 and 2.485 and 2.518 | 2.521 | 2.569 and 2.508 and 2.487 | 2.611 | 2.717 and 2.590 and 2.526 | stimulatory activity | 10.3 | 20.5 | 25.3 | 31.4 | 34.5 | CCCCCCCCCCCCCCC(C)C(=O)OC[C@H](CSC[C@H](N)C(=O)N[C@@H](CO)C(=O)NCCOCCOCCOCCOCCOCCOCCOCCOCCOCCOCCOCCOCCOCCOCCOCCOCCOCCOCCOCCOCCOCCOCCOCCOCCOCCOCCOCCOCCC(=O)NCC(N)=O)OC(=O)C(C)CCCCCCCCCCCCCC (stereo partly drawn) [Compound B4] | fold induction at 0.000125 µg/mL (human TLR2 [1]; 125 pg/mL): 35; fold induction at 0.0005 µg/mL (human TLR2 [1]; 500 pg/mL): 36.3; EC50 (human TLR2 [1]): 0.214 nM |
| 1.362 | 1.443 and 1.313 and 1.329 | 1.860 | 1.892 and 1.785 and 1.902 | 2.045 | 2.149 and 2.008 and 1.979 | 2.411 | 2.420 and 2.446 and 2.366 | 2.457 | 2.492 and 2.500 and 2.380 | 2.568 | 2.608 and 2.541 and 2.555 | 2.471 | 2.584 and 2.404 and 2.426 | stimulatory activity | 18.7 | 25.5 | 28 | 33 | 33.7 | CCCCCCCCCCCCCCC(C)C(=O)OCC[C@H](CSC[C@H](N)C(=O)N[C@@H](CO)C(=O)NCCOCCOCCOCCOCCOCCOCCOCCOCCOCCOCCOCCOCCOCCOCCOCCOCCOCCOCCOCCOCCOCCOCCOCCOCCOCCOCCOCCOCCC(=O)NCC(N)=O)OC(=O)C(C)CCCCCCCCCCCCCC (stereo partly drawn) [Compound B12] | fold induction at 0.000125 µg/mL (human TLR2 [1]; 125 pg/mL): 35.2; fold induction at 0.0005 µg/mL (human TLR2 [1]; 500 pg/mL): 33.9; EC50 (human TLR2 [1]): 0.0509 nM; activity at TLR2 (in words) (human TLR2 [2]): significant activity; stability under accelerated storage conditions (in words) [3]: excellent stabilities |

Reference: US20230278954A1, “BRANCHED LIPID COMPOUDS” (priority 2020, published 2023)
